A value given as a limit tells only on which side of the number the result lay.

The results in this text go back to ChEMBL document CHEMBL5131375, “Recent Developments in the Use of Kinase Inhibitors for Management of Viral Infections” (J Med Chem, 2022).

For one series, the system named is Hepatitis B virus. The series can be described thus: microbe, parasite or virus in culture. In kind it is functional, organism-based.
The subject of a further series is HepG2. The series can be described thus: Cytotoxicity against human HepG2 cells at 1 uM. Format: toxicity, cell-based. Particulars: hepg2, 1 µM.
The next series deals with Measles morbillivirus. In kind it is functional.
Series [1] in a line: in vitro. To be noted: human, pbl.
The target of series [2] is Calcium/calmodulin-dependent protein kinase type II subunit gamma (Homo sapiens, UniProt Q13555). Description: Inhibition of CAMK-II (unknown origin).
A short description of series [3]: Cytotoxicity against HMC3 cells. Format: toxicity, cell-based. Particulars: human.
The subject of a further series is Zaire ebolavirus. The series can be described thus: microbe, parasite or virus in culture. Format: functional, organism-based.
In series [4] the test system is Hepatitis C virus. The series can be described thus: Antiviral activity against HCV assessed as fold reduction in virus titre at 10 uM. In kind it is functional, Hepacivirus hominis.
The nature of series [5]: in vitro. Particulars: human, hek-293t.
The subject of series [6] is Dengue virus. Description: Antiviral activity against DENV infected in HEK293 cells. Format: functional, organism-based.
Series [7] is described as follows: Cytotoxicity against HEK293 cells. Format: toxicity, cell-based. To be noted: human.
Series [8] relates to Dengue virus. Description: microbe, parasite or virus in culture.
Another series deals with Influenza A virus. Description: microbe, parasite or virus in culture. Format: functional, organism-based.
The nature of series [9]: Cytotoxicity against human A549 cells. In kind it is toxicity, cell-based.
Series [10] has as its target Phosphatidylinositol 4-phosphate 3-kinase C2 domain-containing subunit beta (Homo sapiens, UniProt O00750). Description: Inhibition of PIK3C2beta (unknown origin).
The test system of another series is Influenza B virus. The series can be described thus: Antiviral activity against influenza B virus. In kind it is functional, organism-based.
The next series concerns Human rhinovirus sp. Description: Antiviral activity against RV. Format: functional, organism-based, Enterovirus.
The target of series [11] is Epidermal growth factor receptor (Homo sapiens, UniProt P00533).
Series [12] can be described thus: in vitro. To be noted: human, Huh-7 cells.
Series [13] is described as follows: in vitro. To be noted: dog, MDCK cells.
The subject of series [14] is Hepatitis C virus. Description: microbe, parasite or virus in culture.
A short description of series [15]: Cytotoxicity against human LU cells. Format: toxicity, cell-based.
Another series relates to Human betaherpesvirus 5. Description: Antiviral activity against HCMV assessed as inhibition of DNA synthesis at 10 uM relative to control. Format: functional.

Sequence of Phosphatidylinositol 4-phosphate 3-kinase C2 domain-containing subunit beta (O00750 whole entry, the tested form may be a part): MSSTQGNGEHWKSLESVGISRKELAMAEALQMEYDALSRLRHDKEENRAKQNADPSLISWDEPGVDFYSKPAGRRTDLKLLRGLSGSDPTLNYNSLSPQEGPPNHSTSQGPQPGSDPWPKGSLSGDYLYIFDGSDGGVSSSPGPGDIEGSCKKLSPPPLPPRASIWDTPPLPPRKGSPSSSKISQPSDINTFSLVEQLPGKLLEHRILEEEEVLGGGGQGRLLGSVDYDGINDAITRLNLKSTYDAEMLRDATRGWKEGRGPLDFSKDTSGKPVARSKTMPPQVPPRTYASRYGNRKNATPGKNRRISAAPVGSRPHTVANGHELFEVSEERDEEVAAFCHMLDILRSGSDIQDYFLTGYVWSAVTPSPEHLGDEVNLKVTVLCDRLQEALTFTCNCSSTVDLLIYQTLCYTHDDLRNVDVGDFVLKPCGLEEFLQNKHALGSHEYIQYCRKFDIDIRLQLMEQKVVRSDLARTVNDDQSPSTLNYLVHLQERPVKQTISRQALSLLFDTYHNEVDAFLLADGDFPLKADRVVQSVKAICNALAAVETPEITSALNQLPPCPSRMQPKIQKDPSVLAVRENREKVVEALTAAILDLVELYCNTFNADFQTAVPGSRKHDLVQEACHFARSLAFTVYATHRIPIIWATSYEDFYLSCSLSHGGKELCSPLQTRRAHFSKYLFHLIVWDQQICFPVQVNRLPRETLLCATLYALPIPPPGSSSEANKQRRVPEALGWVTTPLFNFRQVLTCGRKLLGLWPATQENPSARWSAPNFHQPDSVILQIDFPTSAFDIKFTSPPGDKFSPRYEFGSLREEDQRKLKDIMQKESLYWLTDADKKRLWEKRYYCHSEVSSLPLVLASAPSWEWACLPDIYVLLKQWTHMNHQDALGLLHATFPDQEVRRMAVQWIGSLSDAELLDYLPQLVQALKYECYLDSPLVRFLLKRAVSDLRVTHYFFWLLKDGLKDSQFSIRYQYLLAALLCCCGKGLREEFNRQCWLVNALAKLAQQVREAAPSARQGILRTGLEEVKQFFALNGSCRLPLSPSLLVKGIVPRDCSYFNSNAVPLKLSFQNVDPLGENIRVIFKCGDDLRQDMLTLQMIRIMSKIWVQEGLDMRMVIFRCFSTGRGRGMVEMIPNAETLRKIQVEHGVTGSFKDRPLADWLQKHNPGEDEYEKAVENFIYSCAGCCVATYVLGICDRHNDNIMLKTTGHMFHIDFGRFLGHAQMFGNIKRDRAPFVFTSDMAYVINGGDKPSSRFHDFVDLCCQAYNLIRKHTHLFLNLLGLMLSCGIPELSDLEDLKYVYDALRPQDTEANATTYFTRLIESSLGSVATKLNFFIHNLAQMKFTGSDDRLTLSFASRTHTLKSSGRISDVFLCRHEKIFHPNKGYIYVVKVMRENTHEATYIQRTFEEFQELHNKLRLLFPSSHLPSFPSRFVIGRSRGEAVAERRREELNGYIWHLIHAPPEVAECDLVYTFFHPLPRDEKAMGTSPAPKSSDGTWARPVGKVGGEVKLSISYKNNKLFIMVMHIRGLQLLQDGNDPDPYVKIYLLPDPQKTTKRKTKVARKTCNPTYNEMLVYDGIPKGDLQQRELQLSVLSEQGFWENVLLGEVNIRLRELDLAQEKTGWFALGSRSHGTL
Sequence of Calcium/calmodulin-dependent protein kinase type II subunit gamma (Q13555 whole entry): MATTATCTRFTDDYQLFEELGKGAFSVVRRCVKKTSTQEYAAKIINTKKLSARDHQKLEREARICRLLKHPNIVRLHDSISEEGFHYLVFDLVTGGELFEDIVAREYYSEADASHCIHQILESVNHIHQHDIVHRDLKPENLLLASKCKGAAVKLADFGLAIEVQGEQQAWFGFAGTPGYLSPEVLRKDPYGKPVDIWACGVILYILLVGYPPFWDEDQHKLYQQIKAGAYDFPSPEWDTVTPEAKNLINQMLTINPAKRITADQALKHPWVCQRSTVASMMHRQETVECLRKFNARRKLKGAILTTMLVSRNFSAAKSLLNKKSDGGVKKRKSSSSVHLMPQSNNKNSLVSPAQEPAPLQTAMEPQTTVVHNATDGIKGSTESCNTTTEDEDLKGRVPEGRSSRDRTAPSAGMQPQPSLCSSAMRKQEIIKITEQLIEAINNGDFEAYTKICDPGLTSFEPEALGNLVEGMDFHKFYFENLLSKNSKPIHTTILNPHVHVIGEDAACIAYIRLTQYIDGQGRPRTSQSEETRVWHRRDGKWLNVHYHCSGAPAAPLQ
Sequence of Epidermal growth factor receptor (P00533 whole entry): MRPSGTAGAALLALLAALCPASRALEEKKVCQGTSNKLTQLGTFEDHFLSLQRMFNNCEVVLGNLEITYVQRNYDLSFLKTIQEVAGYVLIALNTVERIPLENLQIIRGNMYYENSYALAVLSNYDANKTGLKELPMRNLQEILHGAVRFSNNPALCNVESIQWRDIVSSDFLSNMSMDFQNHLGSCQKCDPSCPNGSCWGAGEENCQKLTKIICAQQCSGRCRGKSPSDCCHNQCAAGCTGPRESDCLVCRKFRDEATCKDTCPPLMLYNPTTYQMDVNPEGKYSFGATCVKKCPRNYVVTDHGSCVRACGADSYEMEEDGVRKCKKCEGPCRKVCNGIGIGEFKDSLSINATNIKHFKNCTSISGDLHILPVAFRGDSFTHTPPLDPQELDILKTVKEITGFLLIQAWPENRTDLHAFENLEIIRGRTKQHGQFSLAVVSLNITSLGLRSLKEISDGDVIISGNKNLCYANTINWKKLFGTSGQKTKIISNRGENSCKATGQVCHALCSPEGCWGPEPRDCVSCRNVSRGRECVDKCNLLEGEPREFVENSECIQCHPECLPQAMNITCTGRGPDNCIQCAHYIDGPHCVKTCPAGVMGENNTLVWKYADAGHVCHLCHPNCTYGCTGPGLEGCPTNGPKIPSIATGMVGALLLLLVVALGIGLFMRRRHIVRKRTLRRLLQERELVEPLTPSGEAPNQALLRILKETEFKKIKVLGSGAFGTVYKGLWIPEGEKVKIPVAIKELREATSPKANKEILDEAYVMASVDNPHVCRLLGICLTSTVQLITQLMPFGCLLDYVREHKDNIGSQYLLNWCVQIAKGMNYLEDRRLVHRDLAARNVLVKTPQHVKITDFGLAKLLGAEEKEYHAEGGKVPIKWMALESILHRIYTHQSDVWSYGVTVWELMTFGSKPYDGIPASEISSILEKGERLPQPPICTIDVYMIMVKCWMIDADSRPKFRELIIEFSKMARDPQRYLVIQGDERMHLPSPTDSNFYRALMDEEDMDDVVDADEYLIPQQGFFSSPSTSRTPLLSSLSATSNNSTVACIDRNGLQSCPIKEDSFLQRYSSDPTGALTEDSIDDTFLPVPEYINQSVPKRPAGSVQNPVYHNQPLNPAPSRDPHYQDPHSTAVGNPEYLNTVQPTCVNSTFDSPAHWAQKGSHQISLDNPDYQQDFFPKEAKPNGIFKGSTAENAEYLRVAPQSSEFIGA

On to `Cc1n[nH]c2ccc(-c3cncc(OC[C@@H](N)Cc4c[nH]c5ccccc45)c3)cc12` [A-443654], for which the “inhibition (INH)” value in the series with Hepatitis B virus is on record as 50%. Further, the Activity entry in the series on HepG2 was “Non-Toxic”.

Turning to `Oc1ccc(Nc2nc(-c3ccc(Cl)cc3)cs2)cc1`, in the series on Measles morbillivirus, the “inhibition (INH)” value is 70%. Further, the CC50 in the series “in vitro [1]” is over 5 µM.

In the case of `COc1ccc(S(=O)(=O)N(CCCC(=O)C2CCCCCC2)c2ccccc2)cc1`, the IC50 in [2] was determined as 0.79 µM. Further, in [3], the CC50 is over 12.5 µM.

In the series on Zaire ebolavirus, `O=c1cc(N2CCOCC2)oc2c(-c3ccccc3)cccc12` [LY-294002] displayed an EC50 of 1.8 µM. In addition, the “fold change (FC)” value with Hepatitis C virus [4] came to 5. For the same molecule, the CC50 in the series “in vitro [5]” was over 20 µM.

Regarding `O=S(=O)(NCCNC/C=C/c1ccc(Br)cc1)c1cccc2cnccc12`, the IC50 in the series with Dengue virus [6] came to 0.9 µM; with Dengue virus [8], 0.96 µM. Besides, in series [7], the CC50 was over 1 µM.

Take `O=C(Cc1cccs1)Nc1cccc(-c2ccc3nnc(-c4cccnc4)n3n2)c1`: the EC50 with Influenza A virus came out at 0.35 µM; with Influenza B virus, 0.4 µM; in the series on Human rhinovirus sp., 0.05 µM; in the series with Hepatitis C virus [14], 0.76 µM. In addition, the CC50 (in series [9]; in “in vitro [12]”; in the series “in vitro [13]”) was over 50 µM throughout. In addition, the IC50 in series [10] stood at 0.43 µM; in series [11] it was 0.079 µM.

With `Cn1cnc2c(NCc3ccccc3)nc(NCCO)nc21` [OLOMOUCINE], the CC50 in series [15] is over 15 µM. Moreover, in the series with Human betaherpesvirus 5, the inhibition at 10 µM amounted to 50%.

The IC50 is the concentration needed to halve the response being measured. In general, EC50 refers to the concentration needed to bring the measured effect to its halfway point. A higher EC50 goes with a less potent agent. For orientation: inhibition means the relative decrease from the control value, in per cent.
